Experimental data: US11690854B2, “Methods of treating heavy menstrual bleeding” (priority 2018, dated 2023)
“Also recorded” adds a separate entry of the source. Marks after values point to notes of the source that are not given here.

Tests used:
[1] = molecular target: T1, organic anion transporting polypeptide (OATP)1B1 (Homo sapiens, UniProt Q9Y6L6); experiment: Drug interaction potential: OATP1B1
T1 sequence (Q9Y6L6 1-691): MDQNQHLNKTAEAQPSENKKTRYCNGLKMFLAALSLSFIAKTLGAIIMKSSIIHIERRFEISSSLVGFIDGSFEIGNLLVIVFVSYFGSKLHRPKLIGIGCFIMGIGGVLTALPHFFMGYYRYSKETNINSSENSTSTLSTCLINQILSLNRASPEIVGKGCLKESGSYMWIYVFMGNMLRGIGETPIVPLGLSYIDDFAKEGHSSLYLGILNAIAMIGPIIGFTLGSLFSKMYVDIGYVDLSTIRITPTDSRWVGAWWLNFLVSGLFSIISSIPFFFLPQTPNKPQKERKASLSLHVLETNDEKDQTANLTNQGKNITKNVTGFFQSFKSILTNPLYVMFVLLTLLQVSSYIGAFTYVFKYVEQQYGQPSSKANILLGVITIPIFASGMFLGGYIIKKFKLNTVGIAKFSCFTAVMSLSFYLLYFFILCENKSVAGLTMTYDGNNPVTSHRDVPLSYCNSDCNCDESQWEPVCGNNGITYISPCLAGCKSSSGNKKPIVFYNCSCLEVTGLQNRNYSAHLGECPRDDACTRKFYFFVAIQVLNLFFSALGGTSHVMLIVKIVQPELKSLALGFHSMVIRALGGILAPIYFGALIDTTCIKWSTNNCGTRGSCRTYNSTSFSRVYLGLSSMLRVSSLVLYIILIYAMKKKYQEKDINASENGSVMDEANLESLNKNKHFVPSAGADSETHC
Description: Elagolix is a substrate of CYP3A, P-gp, and organic anion transporting polypeptide (OATP)1B1. Clinically meaningful interactions are not expected when ELAGOLIX is co-administered with drugs that inhibit CYP3A or P-gp.
Co-administration of ELAGOLIX with drugs that inhibit OATP1B1 may increase elagolix plasma concentrations. Use of potent OATP1B1 inhibitors are not recommended with ELAGOLIX 200 mg BID regimen.

[2] = Pharmacokinetic properties of ELAGOLIX in healthy subjects; type: in vivo, human; conditions: for AUC: plasma; for AUC / Cmax: steady state, mean
[3] = system: premenopausal women with endometriosis with associated pain; experiment: Phase 3 Study EM-I (and extension EM-III); type: in vivo, human; conditions: for Proportion of responders for Dyspareunia (Daily Endometriosis Pain Impact Scale) / Proportion of responders for dysmenorrhea (Daily Endometriosis Pain Impact Scale) / Proportion of responders for Non-Menstrual Pelvic Pain (Daily Endometriosis Pain Impact Scale): EM-I
Excerpt: (§1) Each placebo-controlled study assessed the reduction in endometriosis-associated pain over 6 months of treatment. More than 75 percent of women who completed Study EM-I and EM-II enrolled in the extension studies for an additional 6 month treatment period. Subjects were followed for up to 12 months post-treatment. The co-primary efficacy endpoints were the proportion of responders for dysmenorrhea and pelvic pain not related to menses (also known as non-menstrual pelvic pain [NMPP]) at Month 3 compared to placebo. The primary analysis independently evaluated these endpoints using a daily diary that asked patients to assess their pain and its impact on their daily activities, over the previous 24 hours. […] Women were defined as responders if they experienced clinically meaningful reduction in dysmenorrhea and/or NMPP with no increased analgesic use for endometriosis associated pain. Dyspareunia was evaluated as a secondary endpoint using the Daily Endometriosis Pain Impact Scale. Endometrial biopsies were performed in subjects in Study EM-I and its extension at Month 6 and Month 12.

[4] = system: QTc interval; experiment: Thorough QT study; type: in vivo; conditions: up to 1200 mg; 17- to 23-fold of therapeutic concentrations; active control moxifloxacin 400 mg
Description: The effect of elagolix (up to 1200 mg) on QTc interval was evaluated in an active-controlled (moxifloxacin 400 mg) thorough QT study.

[5] = system: premenopausal women with HMB and UF; experiment: Phase 2b trial, post hoc subgroup with uterine fibroids and non-dominant adenomyosis; type: in vivo, human; conditions: 6 months
Description: Patients and Methods: […] Elagolix studied in this clinical trial comprised the sodium salt of Compound A. All subjects were evaluated with ultrasound and a subset volunteered to also be evaluated by MRI. […] Efficacy and safety were evaluated post hoc in a subgroup of women who had confirmed non-dominant adenomyosis (ultrasound/MRI) at baseline. Menstrual blood loss (MBL) was quantified from sanitary products (alkaline hematin). […] Adverse events (AEs) were recorded.

[6] = system: premenopausal women with endometriosis with associated pain; experiment: Phase 3 Study EM-II (and extension EM-IV); type: in vivo, human
Excerpt: as §1, with “Scale.” for “Scale. Endometrial biopsies were performed in subjects in Study EM-I and its extension at Month 6 and Month 12.”

COc1cccc(-c2c(C)n(Cc3c(F)cccc3C(F)(F)F)c(=O)n(C[C@H](NCCCC(=O)O)c3ccccc3)c2=O)c1F [Elagolix, 4-((R)-2-[5-(2-fluoro-3-methoxy-phenyl)-3-(2-fluoro-6-trifluoromethyl-benzyl)-4-methyl-2,6-dioxo-3,6-dihydro-2H-pyrimidin-1-yl]-1-phenyl-ethylamino)-butyric acid]
Substrate of OATP1B1 [1]: substrate | Tmax ([2]; healthy subjects): 1.0 h | blood plasma ratio ([2]; human, blood and plasma): 0.6 | Major route of elimination ([2]; human, in vivo): Hepatic metabolism | Metabolism, minor pathways ([2]; human, in vivo): glucuronosyltransferases (UGTs) | half-life ([2]; human, in vivo, oral, healthy subjects, read-out: Terminal phase elimination half-life (t½)): 4 to 6 h | Metabolism, minor pathways ([2]; human, in vivo, listed as ELAGOLIX): Minor pathways include: CYP2D6,; also recorded: CYP2C8, and uridine | AUC ([2]; human, oral, 150 mg QD, τ 24 hours, % CV 31): 1290 ng·h/mL | AUC ([2]; human, oral, 200 mg BID, τ 12 hours, % CV 57): 1720 ng·h/mL | Metabolism ([2]; major pathway): CYP3A (major) | Cmax ([2]; 150 mg QD, % CV 29): 574 ng/mL | Cmax ([2]; 200 mg BID, % CV 68): 774 ng/mL | Proportion of responders for Dyspareunia (Daily Endometriosis Pain Impact Scale) ([3]; 150 mg QD, Month 3, n/N 74/187, placebo 31.9): 39.6% | Proportion of responders for dysmenorrhea (Daily Endometriosis Pain Impact Scale) ([3]; 150 mg QD, Month 3, n/N 115/248, placebo 19.6): 46.4*** % | Proportion of responders for Non-Menstrual Pelvic Pain (Daily Endometriosis Pain Impact Scale) ([3]; 150 mg QD, Month 3, n/N 125/248, placebo 36.5): 50.4*** % | Proportion of responders for Dyspareunia (Daily Endometriosis Pain Impact Scale) ([3]; 150 mg QD, Month 6, n/N 74/187, placebo 33.3): 39.6% | Proportion of responders for dysmenorrhea (Daily Endometriosis Pain Impact Scale) ([3]; 150 mg QD, Month 6, n/N 104/247, placebo 23.1): 42.1*** % | Proportion of responders for Non-Menstrual Pelvic Pain (Daily Endometriosis Pain Impact Scale) ([3]; 150 mg QD, Month 6, n/N 113/247, placebo 34.9): 45.7** % | Proportion of responders for Dyspareunia (Daily Endometriosis Pain Impact Scale) ([3]; 200 mg BID, Month 3, n/N 81/172, placebo 31.9): 47.1*** % | Proportion of responders for Non-Menstrual Pelvic Pain (Daily Endometriosis Pain Impact Scale) ([3]; 200 mg BID, Month 3, n/N 133/244, placebo 36.5): 54.5*** % | Proportion of responders for dysmenorrhea (Daily Endometriosis Pain Impact Scale) ([3]; 200 mg BID, Month 3, n/N 185/244, placebo 19.6): 75.8*** % | Proportion of responders for Dyspareunia (Daily Endometriosis Pain Impact Scale) ([3]; 200 mg BID, Month 6, n/N 81/161, placebo 33.3): 50.3*** % | Proportion of responders for Non-Menstrual Pelvic Pain (Daily Endometriosis Pain Impact Scale) ([3]; 200 mg BID, Month 6, n/N 151/243, placebo 34.9): 62.1*** % | Proportion of responders for dysmenorrhea (Daily Endometriosis Pain Impact Scale) ([3]; 200 mg BID, Month 6, n/N 183/243, placebo 23.1): 75.3*** % | Endometrial biopsy findings ([3]; Study EM-I and its extension, Month 6 and Month 12): no abnormal biopsy findings post-baseline | Effect on QTc interval [4]: does not prolong the QTc interval | Proportion of women with ≥50% reduction from baseline in HMB and <80 mL MBL in the last 28 days of treatment ([5]; Cohort 1 (300 mg BID, with or without E2/NETA), placebo 40% (n=10)): 80% | Proportion of women with ≥50% reduction from baseline in HMB and <80 mL MBL in the last 28 days of treatment ([5]; Cohort 2 (600 mg QD, with or without E2/NETA), placebo 13% (n=16)): 92% | Proportion of responders for Dyspareunia (Daily Endometriosis Pain Impact Scale) ([6]; 150 mg QD, Month 3, n/N 70/159, placebo 39.5): 44.0% | Proportion of responders for dysmenorrhea (Daily Endometriosis Pain Impact Scale) ([6]; 150 mg QD, Month 3, n/N 96/221, placebo 22.7): 43.4%*** | Proportion of responders for Non-Menstrual Pelvic Pain (Daily Endometriosis Pain Impact Scale) ([6]; 150 mg QD, Month 3, n/N 110/221, placebo 36.5): 49.8** % | Proportion of responders for Dyspareunia (Daily Endometriosis Pain Impact Scale) ([6]; 150 mg QD, Month 6, n/N 65/163, placebo 39.4): 39.9% | Proportion of responders for dysmenorrhea (Daily Endometriosis Pain Impact Scale) ([6]; 150 mg QD, Month 6, n/N 102/221, placebo 25.4): 46.2%*** | Proportion of responders for Non-Menstrual Pelvic Pain (Daily Endometriosis Pain Impact Scale) ([6]; 150 mg QD, Month 6, n/N 114/221, placebo 40.6): 51.6%** | Proportion of responders for Dyspareunia (Daily Endometriosis Pain Impact Scale) ([6]; 200 mg BID, Month 3, n/N 87/162, placebo 39.5): 53.7** % | Proportion of responders for Non-Menstrual Pelvic Pain (Daily Endometriosis Pain Impact Scale) ([6]; 200 mg BID, Month 3, n/N 130/225, placebo 36.5): 57.8*** % | Proportion of responders for dysmenorrhea (Daily Endometriosis Pain Impact Scale) ([6]; 200 mg BID, Month 3, n/N 163/225, placebo 22.7): 72.4*** % | Proportion of responders for Dyspareunia (Daily Endometriosis Pain Impact Scale) ([6]; 200 mg BID, Month 6, n/N 92/165, placebo 39.4): 55.8*** % | Proportion of responders for Non-Menstrual Pelvic Pain (Daily Endometriosis Pain Impact Scale) ([6]; 200 mg BID, Month 6, n/N 140/225, placebo 40.6): 62.2*** % | Proportion of responders for dysmenorrhea (Daily Endometriosis Pain Impact Scale) ([6]; 200 mg BID, Month 6, n/N 173/225, placebo 25.4): 76.9*** %
